# Assay results taken from patent publication US12419873B2, “Use of JAK inhibitors in preparation of drugs for treating JAK kinase-related diseases” (ZHUHAI UNITED LABORATORIES CO., LTD., priority 2020, dated 2025).
# What was measured:
# TYK2 = TYK2 (Homo sapiens (Human), UniProt P29597); test: In vitro activity test of TYK2 kinase; format: biochemical
# Protocol: (§1) Recombinant human JAK1, JAK2, JAK3, TyK2 protease, main instruments and reagents were provided by Eurofins in the UK
# (§2) All compounds were prepared into a 100% DMSO solution and reached 50 times the final determined concentration. The test compound was diluted by 3 times the concentration gradient, and the final concentration was 10 μM to 0.001 μM, 9 concentrations in total, and the content of DMSO in the detection reaction was 2%. The working stock solution of the compound was added to a determination hole as the first component of the reaction, and then the remaining components were added according to the detailed scheme determination below.
# (§3) Mg/ATP mixture was added to start the reaction. After incubation at room temperature for 40 minutes, 0.5% phosphoric acid was added to stop the reaction.
# JAK1 = JAK1 (Homo sapiens (Human), UniProt P23458); test: In vitro activity test of JAK1 kinase; format: biochemical
# Protocol: as §1, §2, §3
# JAK3 = JAK3 (Homo sapiens (Human), UniProt P52333); test: In vitro activity test of JAK3 kinase; format: biochemical
# Protocol: as §1, §2, §3
# JAK2 = JAK2 (Homo sapiens (Human), UniProt O60674); test: In vitro activity test of JAK2 kinase; conditions: read-out: JAK2 (IC50)
# JAK2, sequence (O60674 whole entry): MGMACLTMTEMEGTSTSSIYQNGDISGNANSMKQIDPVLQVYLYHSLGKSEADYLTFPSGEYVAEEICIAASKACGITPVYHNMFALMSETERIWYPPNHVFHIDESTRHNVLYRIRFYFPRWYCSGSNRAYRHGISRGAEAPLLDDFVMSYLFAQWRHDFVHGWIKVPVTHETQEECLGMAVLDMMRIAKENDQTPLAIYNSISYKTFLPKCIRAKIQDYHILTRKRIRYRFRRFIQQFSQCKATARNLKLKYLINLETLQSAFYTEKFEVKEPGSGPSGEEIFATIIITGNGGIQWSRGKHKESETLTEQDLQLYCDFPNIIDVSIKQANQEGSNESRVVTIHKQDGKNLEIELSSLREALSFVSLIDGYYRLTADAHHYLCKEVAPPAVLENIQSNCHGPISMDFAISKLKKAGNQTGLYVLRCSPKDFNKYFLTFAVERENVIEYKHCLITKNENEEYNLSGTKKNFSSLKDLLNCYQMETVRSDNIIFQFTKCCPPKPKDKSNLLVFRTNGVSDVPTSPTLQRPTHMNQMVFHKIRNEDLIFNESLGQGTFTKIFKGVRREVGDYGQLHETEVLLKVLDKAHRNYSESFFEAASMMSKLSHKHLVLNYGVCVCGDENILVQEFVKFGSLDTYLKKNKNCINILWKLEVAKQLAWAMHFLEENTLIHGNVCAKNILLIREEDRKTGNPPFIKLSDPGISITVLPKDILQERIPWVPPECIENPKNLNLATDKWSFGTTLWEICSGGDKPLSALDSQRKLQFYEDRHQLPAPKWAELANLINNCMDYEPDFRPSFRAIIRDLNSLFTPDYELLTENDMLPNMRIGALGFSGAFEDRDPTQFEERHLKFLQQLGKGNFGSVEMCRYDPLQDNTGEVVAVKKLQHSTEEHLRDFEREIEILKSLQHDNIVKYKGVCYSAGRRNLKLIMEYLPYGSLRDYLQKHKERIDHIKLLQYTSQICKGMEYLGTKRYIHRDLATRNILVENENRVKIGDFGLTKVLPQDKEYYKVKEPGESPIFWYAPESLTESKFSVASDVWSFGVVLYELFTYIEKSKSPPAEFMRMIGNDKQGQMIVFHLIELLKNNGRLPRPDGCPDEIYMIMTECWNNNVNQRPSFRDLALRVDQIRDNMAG
# JAK3, sequence (P52333 whole entry): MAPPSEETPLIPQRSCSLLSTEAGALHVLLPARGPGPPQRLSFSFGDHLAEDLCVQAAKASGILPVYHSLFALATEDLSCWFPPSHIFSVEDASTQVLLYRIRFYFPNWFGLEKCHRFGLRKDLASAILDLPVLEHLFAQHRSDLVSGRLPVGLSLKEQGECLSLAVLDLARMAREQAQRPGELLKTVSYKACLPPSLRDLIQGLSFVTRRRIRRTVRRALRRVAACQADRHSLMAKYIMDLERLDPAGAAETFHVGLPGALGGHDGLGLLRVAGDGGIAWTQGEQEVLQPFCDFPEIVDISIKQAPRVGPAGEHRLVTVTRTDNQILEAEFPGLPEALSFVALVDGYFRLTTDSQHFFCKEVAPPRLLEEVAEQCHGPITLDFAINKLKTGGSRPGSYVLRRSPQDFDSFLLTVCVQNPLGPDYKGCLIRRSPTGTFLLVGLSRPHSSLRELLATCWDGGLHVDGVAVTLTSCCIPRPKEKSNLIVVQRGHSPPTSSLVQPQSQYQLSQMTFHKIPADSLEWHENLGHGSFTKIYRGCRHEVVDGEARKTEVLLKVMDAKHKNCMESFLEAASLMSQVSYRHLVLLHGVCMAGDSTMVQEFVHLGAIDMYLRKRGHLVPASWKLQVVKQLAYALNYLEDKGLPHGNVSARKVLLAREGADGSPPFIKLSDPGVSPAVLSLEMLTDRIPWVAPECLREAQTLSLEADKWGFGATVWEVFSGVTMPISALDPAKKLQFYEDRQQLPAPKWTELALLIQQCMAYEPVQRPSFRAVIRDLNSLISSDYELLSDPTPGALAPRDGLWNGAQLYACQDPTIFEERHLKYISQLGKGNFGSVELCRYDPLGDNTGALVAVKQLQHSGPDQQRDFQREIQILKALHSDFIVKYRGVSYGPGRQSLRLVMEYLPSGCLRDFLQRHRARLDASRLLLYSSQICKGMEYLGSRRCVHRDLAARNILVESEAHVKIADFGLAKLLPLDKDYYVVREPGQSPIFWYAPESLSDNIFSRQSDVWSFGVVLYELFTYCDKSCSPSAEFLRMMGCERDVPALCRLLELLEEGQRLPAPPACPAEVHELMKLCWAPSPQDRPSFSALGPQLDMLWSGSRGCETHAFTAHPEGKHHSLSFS
# TYK2, sequence (P29597 whole entry): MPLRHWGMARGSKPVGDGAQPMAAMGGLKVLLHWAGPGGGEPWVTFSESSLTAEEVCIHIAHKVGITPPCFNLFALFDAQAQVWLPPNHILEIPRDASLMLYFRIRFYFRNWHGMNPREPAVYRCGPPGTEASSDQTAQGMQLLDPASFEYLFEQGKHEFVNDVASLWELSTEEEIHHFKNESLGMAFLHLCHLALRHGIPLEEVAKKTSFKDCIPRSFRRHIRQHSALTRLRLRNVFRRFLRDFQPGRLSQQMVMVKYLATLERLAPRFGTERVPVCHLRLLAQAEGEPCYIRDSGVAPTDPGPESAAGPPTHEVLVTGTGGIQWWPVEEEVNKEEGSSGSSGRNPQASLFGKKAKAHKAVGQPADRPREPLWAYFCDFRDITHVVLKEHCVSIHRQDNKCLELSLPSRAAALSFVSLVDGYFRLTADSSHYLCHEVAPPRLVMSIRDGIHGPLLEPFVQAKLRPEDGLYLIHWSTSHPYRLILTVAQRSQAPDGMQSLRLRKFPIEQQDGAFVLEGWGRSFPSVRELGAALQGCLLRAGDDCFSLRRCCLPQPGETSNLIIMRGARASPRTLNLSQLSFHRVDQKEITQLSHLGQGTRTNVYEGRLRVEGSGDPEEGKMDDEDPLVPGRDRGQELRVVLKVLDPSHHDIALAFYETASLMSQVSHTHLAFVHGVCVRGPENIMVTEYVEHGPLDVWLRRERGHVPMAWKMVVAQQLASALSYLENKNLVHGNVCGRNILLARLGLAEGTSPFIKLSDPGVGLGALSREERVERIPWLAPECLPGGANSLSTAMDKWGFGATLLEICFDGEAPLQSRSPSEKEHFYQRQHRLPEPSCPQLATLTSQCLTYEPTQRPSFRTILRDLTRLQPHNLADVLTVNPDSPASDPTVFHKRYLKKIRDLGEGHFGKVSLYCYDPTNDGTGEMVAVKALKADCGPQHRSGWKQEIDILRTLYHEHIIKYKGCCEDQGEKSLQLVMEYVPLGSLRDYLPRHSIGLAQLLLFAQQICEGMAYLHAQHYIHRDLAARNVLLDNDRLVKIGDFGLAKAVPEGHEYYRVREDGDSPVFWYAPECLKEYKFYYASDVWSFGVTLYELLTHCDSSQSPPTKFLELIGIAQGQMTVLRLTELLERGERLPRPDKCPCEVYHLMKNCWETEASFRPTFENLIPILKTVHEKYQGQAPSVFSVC
# JAK1, sequence (P23458 whole entry): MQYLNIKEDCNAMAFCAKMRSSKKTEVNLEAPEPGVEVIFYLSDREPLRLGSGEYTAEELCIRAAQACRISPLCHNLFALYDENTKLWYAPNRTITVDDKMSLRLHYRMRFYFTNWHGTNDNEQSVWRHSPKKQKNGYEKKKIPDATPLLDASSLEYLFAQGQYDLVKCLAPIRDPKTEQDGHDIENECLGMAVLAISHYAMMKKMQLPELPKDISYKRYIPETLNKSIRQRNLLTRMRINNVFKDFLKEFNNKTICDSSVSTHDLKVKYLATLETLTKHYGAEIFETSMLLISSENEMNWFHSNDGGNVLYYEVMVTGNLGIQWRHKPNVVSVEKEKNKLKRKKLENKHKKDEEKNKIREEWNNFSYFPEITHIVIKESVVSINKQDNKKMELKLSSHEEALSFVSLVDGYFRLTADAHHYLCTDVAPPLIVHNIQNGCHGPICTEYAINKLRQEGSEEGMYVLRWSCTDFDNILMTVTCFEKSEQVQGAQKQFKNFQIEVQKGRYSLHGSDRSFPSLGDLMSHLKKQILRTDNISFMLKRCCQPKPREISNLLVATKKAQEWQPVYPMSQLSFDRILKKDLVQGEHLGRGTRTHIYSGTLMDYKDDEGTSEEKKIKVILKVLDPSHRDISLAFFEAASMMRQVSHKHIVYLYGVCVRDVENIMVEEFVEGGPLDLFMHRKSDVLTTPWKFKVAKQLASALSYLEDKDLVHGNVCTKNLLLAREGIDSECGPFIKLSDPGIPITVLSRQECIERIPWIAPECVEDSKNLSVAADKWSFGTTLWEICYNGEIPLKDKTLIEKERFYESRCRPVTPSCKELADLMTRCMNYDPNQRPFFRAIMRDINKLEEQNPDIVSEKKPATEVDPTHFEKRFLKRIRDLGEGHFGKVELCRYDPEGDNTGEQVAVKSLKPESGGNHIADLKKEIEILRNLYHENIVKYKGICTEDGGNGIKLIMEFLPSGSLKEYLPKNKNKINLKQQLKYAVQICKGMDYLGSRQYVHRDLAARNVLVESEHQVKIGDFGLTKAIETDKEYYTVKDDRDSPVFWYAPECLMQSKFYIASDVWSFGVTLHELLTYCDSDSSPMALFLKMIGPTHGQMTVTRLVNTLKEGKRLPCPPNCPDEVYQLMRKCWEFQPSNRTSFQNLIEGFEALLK
SMILES,IC50 (TYK2) [nM],IC50 (JAK1) [nM],IC50 (JAK3) [nM],IC50 (JAK2) [nM]
N#CCN1CC2(CCC(c3cccc4nc(NC(=O)[C@H]5CC5(F)F)nn34)CC2)C1 [Compound 8-9],1330,52,> 10000,3670
"O=C(Nc1nc2cccc(C3CCC4(CC3)CCN(C(=O)C3CC3(F)F)C4)n2n1)C1CC1 (single isomer, unassigned) [Compound 5-7]",67,31,5760,324
"O=C(Nc1nc2cccc([C@@H]3CCC4(CCN(C(=O)[C@@H]5CC5(F)F)CC4)C3)n2n1)C1CC1 (single isomer, unassigned) [Compound 6-8]",570,381,> 10000,1920
"O=C(Nc1nc2cccc(C3CCC4(CC3)CCN(C(=O)C3CC3(F)F)C4)n2n1)C1CC1 (single isomer, unassigned) [Compound 5-8]",692,75,7350,789
N#CCC(=O)N1CC2(CCC(F)(c3cccc4nc(NC(=O)C5CC5)nn34)CC2)C1 [Compound 4-6],307,170,8450,2010
